Measured values as given in ChEMBL document CHEMBL5584231, “Rational design of a new short anticancer peptide with good potential for cancer treatment” (Eur J Med Chem, 2024).
Activity calls are given as the source filed them. The rule behind the calls is not given here. Non-standard residues stand in square brackets, D forms with d. Residues, ends and D or L forms follow the SMILES beside them. Aad = N[C@@H](CCCC(=O)O)C(=O)O

Tests used:
[1] = Therapeutic index, ratio of HC10 for mouse RBC to IC50 for cytotoxicity against RG cells (unknown origin); type: toxicity, cell-based; details: mouse RBC and RG cells, read-out: TI
MCF7 [2] = assay: Cytotoxicity against human MCF7 cells assessed as inhibition of cell growth incubated for 1 hr by MTT assay; type: functional, cell-based; details: MCF7, 1 h
MCF7 [3] = assay: Induction of apoptosis in human MCF7 cells assessed as early apoptotic cells at 1 times IC50 measured after 24 hrs by Annexin V-FITC staining based flow cytometry analysis (reference value: 0.014%); type: functional
[4] = Acute toxicity in female Balb/c mouse assessed as necrosis in kidney at approximately LD50 administered as single ip dose by H and E staining based analysis; type: organism-based; details: in vivo
[5] = Acute toxicity in female Balb/c mouse assessed as cellular swelling in liver at approximately LD50 administered as single ip dose by H and E staining based analysis; type: organism-based; details: in vivo
4T1 [6] = assay: Antitumor activity against mouse 4T1 cells implanted in female Balb/c mouse assessed as reduction in tumor growth at 12 micromol/kg, ip administered every other day for 2 weeks and measured every 2 days; type: functional, organism-based; details: dose 12.0 µmol/kg
[7] = Stability in mouse serum assessed as half life at 10 mM incubated for 12 hrs by RP-HPLC analysis; type: ADME, cell-free
4T1 [8] = assay: Antitumor activity against mouse 4T1 cells implanted in female Balb/c mouse assessed as increase in tumor cell apoptosis at 12 micromol/kg, ip administered every other day for 2 weeks by H and E staining based analysis; type: functional, organism-based; details: dose 12.0 µmol/kg
[9] = Acute toxicity in female Balb/c mouse assessed as reduction in survival rate at 37 to 55 mg/kg, ip administered as single dose and measured for 7 days; type: organism-based; details: in vivo, 168 h, dose 37-55 mg/kg, time 7 day
A549 = assay: Cytotoxicity against human A549 cells assessed as inhibition of cell growth incubated for 1 hr by MTT assay; type: functional, cell-based; details: A549, 1 h
Cell membrane = assay: Disruption of cell membrane integrity in human MCF7 cells assessed as increase in PI fluorescence measured after 1 hr by laser confocal scanning microscopic analysis; type: cell membranes
HeLa = assay: Cytotoxicity against human HeLa cells assessed as inhibition of cell growth incubated for 1 hr by MTT assay; type: functional, cell-based
[10] = Stability in mouse serum assessed as compound remaining at 10 mM incubated for 6 hrs by RP-HPLC analysis; type: ADME, cell-free; details: read-out: Stability
[11] = Acute toxicity in female Balb/c mouse assessed as shrinking cytoplasm in kidney at approximately LD50 administered as single ip dose by H and E staining based analysis; type: organism-based; details: in vivo
MCF7 [12] = assay: Induction of apoptosis in human MCF7 cells assessed as dead cells at 1 times IC50 measured after 24 hrs by Annexin V-FITC staining based flow cytometry analysis (reference value: 6.41%); type: functional
[13] = Acute toxicity in female Balb/c mouse assessed as reduction in survival rate at 37 mg/kg, ip administered as single dose and measured for 7 days; type: organism-based; details: in vivo, 168 h, time 7 day
4T1 [14] = assay: Antitumor activity against mouse 4T1 cells implanted in female Balb/c mouse assessed as increase in tumor cell necrosis at 12 micromol/kg, ip administered every other day for 2 weeks by H and E staining based analysis; type: functional, organism-based; details: dose 12.0 µmol/kg
[15] = Acute toxicity in female Balb/c mouse assessed as heart damage at approximately LD50 administered as single ip dose by H and E staining based analysis; type: organism-based; details: in vivo
[16] = Cytotoxicity against HK-2 cells assessed as inhibition of cell growth incubated for 1 hr by MTT assay; type: toxicity, cell-based; details: human
[17] = Drug uptake in HK-2 cells at 5 uM incubated for 1 hr by laser confocal scanning microscopic analysis; type: ADME, cell-based; details: human, hk-2, 1 h
[18] = Acute toxicity in female Balb/c mouse assessed as reduction in survival rate at 65 mg/kg, ip administered as single dose and measured for 7 days; type: organism-based; details: in vivo, 168 h, time 7 day
4T1 [19] = assay: Antitumor activity against mouse 4T1 cells implanted in female Balb/c mouse assessed as increase in tumor cell lysis at 12 micromol/kg, ip administered every other day for 2 weeks by H and E staining based analysis; type: functional, organism-based; details: dose 12.0 µmol/kg
[20] = Acute toxicity in female Balb/c mouse assessed as reduction in survival rate at 82 to 130 mg/kg, ip administered as single dose and measured for 7 days; type: organism-based; details: in vivo, 168 h, dose 82-130 mg/kg, time 7 day
4T1 [21] = assay: Antitumor activity against mouse 4T1 cells implanted in female Balb/c mouse assessed as nucleus contraction at 12 micromol/kg, ip administered every other day for 2 weeks by H and E staining based analysis; type: functional, organism-based; details: dose 12.0 µmol/kg
[22] = Acute toxicity in female Balb/c mouse assessed as reduction in survival rate at 50 mg/kg, ip administered as single dose and measured for 7 days; type: organism-based; details: in vivo, 168 h, time 7 day
[23] = Acute toxicity in female Balb/c mouse assessed as reduction in survival rate at 65 to 110 mg/kg, ip administered as single dose and measured for 7 days; type: organism-based; details: in vivo, 168 h, dose 65-110 mg/kg, time 7 day

For `CC(C)C[C@H](NC(=O)[C@H](CC(C)C)NC(=O)[C@H](CCCCN)NC(=O)[C@H](CCCCN)NC(=O)[C@H](CC(C)C)NC(=O)[C@H](CC(C)C)NC(=O)[C@H](CCCCN)NC(=O)[C@H](CCCCN)NC(=O)[C@H](CC(C)C)NC(=O)[C@H](CC(C)C)NC(=O)[C@H](CCCCN)NC(=O)[C@H](CCCCN)NC(=O)[C@H](CC(C)C)NC(=O)[C@@H](N)CC(C)C)C(N)=O` (H-LLKKLLKKLLKKLL-NH2), which selectivity ratio [1] is on record?
The selectivity ratio was 1.69.

And the IC50 (MCF7 [2])?
Its IC50 is 4.76 µM.

And the Activity (MCF7 [3])?
The Activity was 18.9%.

What about the Activity [4] of the same compound?
Its Activity is “Toxic”.

What about the Activity [5] of the same compound?
The Activity was “Toxic”.

What about the Activity (4T1 [6]) of the same compound?
Its Activity is “Active”.

And the half-life at 10000 µM [7]?
Its half-life at 10000 µM is 11.1 h.

And the Activity (4T1 [8])?
The Activity was “Active”.

And the Activity [9]?
Its Activity is “Toxic”.

What about the IC50 (A549) of the same compound?
Its IC50 is 3.65 µM.

And the Activity (Cell membrane)?
Its Activity is “Dose-Dependent Effect”.

And the IC50 (HeLa)?
The IC50 was 5.91 µM.

What about the remaining at 6 h, 10000 µM [10] of the same compound?
The remaining at 6 h, 10000 µM was greater than 60%.

What about the Activity [11] of the same compound?
The Activity was “Toxic”.

And the Activity (MCF7 [12])?
Its Activity is 3.79%.

And the Activity [13]?
Its Activity is “Non-Toxic”.

And the Activity (4T1 [14])?
Its Activity is “Active”.

And the Activity [15]?
The Activity was “Non-Toxic”.

What about the IC50 at 1 h [16] of the same compound?
The IC50 at 1 h was 5.4 µM.

What about the Drug uptake [17] of the same compound?
Its Drug uptake is “Active”.

Which results are given for `CC(C)C[C@H](NC(=O)[C@H](CCCCN)NC(=O)[C@H](CCCCN)NC(=O)[C@H](CC(C)C)NC(=O)[C@H](CC(C)C)NC(=O)[C@H](CCCCN)NC(=O)[C@H](CCCCN)NC(=O)[C@H](CC(C)C)NC(=O)[C@H](CC(C)C)NC(=O)[C@H](CCCCN)NC(=O)[C@H](CCCCN)NC(=O)[C@H](CC(C)C)NC(=O)[C@@H](N)CC(C)C)C(=O)N[C@@H](CCCC(=O)O)C(N)=O` (H-LLKKLLKKLLKKL[Aad]-NH2)?
selectivity ratio [1]: 12.7; IC50 (MCF7 [2]): 15.7 µM; Activity (MCF7 [3]): 25.9%; Activity [5]: Toxic; Activity (4T1 [6]): Active; half-life at 10000 µM [7]: 7.6 h; Activity [18]: Non-Toxic; Activity (4T1 [19]): Active; Activity (4T1 [8]): Active; Activity [20]: Toxic; IC50 (A549): 10.3 µM; Activity (Cell membrane): Dose-Dependent Effect; IC50 (HeLa): 7.15 µM; remaining at 6 h, 10000 µM [10]: > 60%; Activity (MCF7 [12]): 4.4%; Activity (4T1 [21]): Active; Activity (4T1 [14]): Active; Activity [15]: Non-Toxic; IC50 at 1 h [16]: 38.7 µM; Drug uptake [17]: Not Active

Which results are given for `CC(C)C[C@H](NC(=O)[C@H](CCCCN)NC(=O)[C@H](CCCCN)NC(=O)[C@H](CC(C)C)NC(=O)[C@H](CC(C)C)NC(=O)[C@H](CCCCN)NC(=O)[C@H](CCCCN)NC(=O)[C@H](CC(C)C)NC(=O)[C@H](CC(C)C)NC(=O)[C@H](CCCCN)NC(=O)[C@H](CCCCN)NC(=O)[C@H](CC(C)C)NC(=O)[C@@H](N)CC(C)C)C(=O)N[C@@H](CCC(=O)O)C(N)=O` (H-LLKKLLKKLLKKLE-NH2)?
selectivity ratio [1]: 14.2; IC50 (MCF7 [2]): 21.4 µM; Activity (MCF7 [3]): 18%; Activity [5]: Toxic; Activity (4T1 [6]): Active; half-life at 10000 µM [7]: 7.78 h; Activity (4T1 [8]): Active; IC50 (A549): 14.4 µM; Activity (Cell membrane): Dose-Dependent Effect; IC50 (HeLa): 9.46 µM; remaining at 6 h, 10000 µM [10]: > 60%; Activity (MCF7 [12]): 5.69%; Activity [22]: Non-Toxic; Activity (4T1 [14]): Active; Activity [15]: Non-Toxic; IC50 at 1 h [16]: 59.3 µM; Activity [23]: Toxic; Drug uptake [17]: Not Active
